Experimental findings from BindingDB's records for doi:10.1021/jf050110v (China Pharmaceutical University, 2020) are described below.

Structures are written as SMILES.

The target in the test is High affinity nerve growth factor receptor (Homo sapiens, UniProt P04629). The test is described as follows: Inhibition of wild type […] (unknown origin) incubated for 30 mins by caliper mobility shift assay.
High affinity nerve growth factor receptor, sequence (P04629 whole entry): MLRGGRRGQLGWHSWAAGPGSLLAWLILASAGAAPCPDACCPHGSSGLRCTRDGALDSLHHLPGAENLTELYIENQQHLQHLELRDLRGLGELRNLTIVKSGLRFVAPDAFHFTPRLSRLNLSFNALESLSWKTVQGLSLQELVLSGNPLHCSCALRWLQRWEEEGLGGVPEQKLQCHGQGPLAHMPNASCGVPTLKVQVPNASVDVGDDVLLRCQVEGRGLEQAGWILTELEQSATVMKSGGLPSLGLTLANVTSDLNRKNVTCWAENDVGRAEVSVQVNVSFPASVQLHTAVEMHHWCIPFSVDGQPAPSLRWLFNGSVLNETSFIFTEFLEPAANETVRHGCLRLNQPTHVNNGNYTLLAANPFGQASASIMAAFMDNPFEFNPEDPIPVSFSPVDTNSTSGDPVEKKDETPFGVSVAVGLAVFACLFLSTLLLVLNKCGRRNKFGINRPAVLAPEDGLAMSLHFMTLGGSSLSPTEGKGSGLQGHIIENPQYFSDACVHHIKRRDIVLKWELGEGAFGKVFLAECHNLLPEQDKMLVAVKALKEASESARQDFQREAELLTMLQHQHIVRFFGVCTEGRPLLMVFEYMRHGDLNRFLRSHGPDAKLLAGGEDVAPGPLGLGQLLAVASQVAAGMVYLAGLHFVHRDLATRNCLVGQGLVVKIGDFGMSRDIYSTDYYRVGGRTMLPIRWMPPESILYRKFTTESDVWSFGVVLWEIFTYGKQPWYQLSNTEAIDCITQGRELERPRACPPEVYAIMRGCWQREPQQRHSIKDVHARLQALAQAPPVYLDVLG
Regarding `O=C(NC1CCOCC1)c1cnn2ccc(NCc3cccc(F)c3)nc12`, the IC50 amounted to 3.6 nM.

On to `O=C(N[C@H]1CC[C@H](O)CC1)c1cnn2ccc(NCc3cccc(F)c3)nc12`, for which the IC50 was 1.6 nM.

`CO[C@H]1CC[C@H](NC(=O)c2cnn3ccc(NCc4cccc(F)c4)nc23)CC1`: the IC50 is 1.5 nM.

In the case of `CC(Nc1ccn2ncc(C(=O)NC3CCOCC3)c2n1)c1cccc(F)c1` (stereo unspecified), the IC50 worked out at 2.1 nM.

Turning to `CC(Nc1ccn2ncc(C(=O)N[C@H]3CC[C@H](O)CC3)c2n1)c1cccc(F)c1` (stereo partly specified), the IC50 was found to be 3 nM.

In the case of `CN(Cc1cccc(F)c1)c1ccn2ncc(C(=O)NC3CCOCC3)c2n1`, the IC50 turned out to be 3.2 nM.

On to `CN(Cc1cccc(F)c1)c1ccn2ncc(C(=O)N[C@H]3CC[C@H](O)CC3)c2n1`, for which the IC50 turned out to be 1.3 nM.

On to `CO[C@H]1CC[C@H](NC(=O)c2cnn3ccc(N(C)Cc4cccc(F)c4)nc23)CC1`, for which the IC50 came out at 1.1 nM.

As to `O=C(NC1CCOCC1)c1cnc2ccc(NCc3cccc(F)c3)nn12`, the IC50 came out at 8.4 nM.

`O=C(N[C@H]1CC[C@H](O)CC1)c1cnc2ccc(NCc3cccc(F)c3)nn12`: the half-inhibitory concentration (IC50) was found to be 2.8 nM.

Turning to `CO[C@H]1CC[C@H](NC(=O)c2cnc3ccc(NCc4cccc(F)c4)nn23)CC1`, the IC50 was found to be 3 nM.
